In patent publication US20010055753A1, “Method to regulate CD40 signaling” (National Jewish Medical and Research Center, priority 1995, published 2001):

How the values were obtained:
[1] = tested on: p42^erk2; experiment: Immunoblot with anti-ERK2 antibody (mobility shift) in Ramos cells; format: cell-based, human; conditions: PMA 100 ng/ml or anti-IgM 10 μg/ml, anti-CD40 5 μg/ml, 0-60 min
Protocol: The human Burkitt's lymphoma cell line Ramos was obtained from the American Type Culture Collection (Rockville, Md.), and cells were maintained in RPMI-1640 supplemented with 50 units/ml penicillin-streptomycin, 2 mM glutamine, and 10% FCS. Exponentially growing cells were used in all experiments.
About 1×10^6 Ramos cells were separately treated with 10 μg/ml anti-IgM F(ab′)2 goat anti-human IgM antibody (obtained from Zymed, San Francisco, Calif.) or 5 μg/ml anti-CD40 antibody (G28-5; obtained from Dr. E. A. Clark, Washington University, Seattle, Wash.) for 0, 1, 5, 15, 30 or 60 min. Ramos cells were also treated with phorbol 12-myristate 13-acetate (PMA; obtained from Sigma, St Louis, Mo.). Immunoblot analysis was performed on each of the samples using monoclonal anti-ERK2 antibody in the following method. The treated cells were lysed in 100 μl of lysis buffer (25 mM Tris-HCl, pH 7.6, 50 mM NaCl, 0.5% Na deoxycholate, 2% NP-40, 0.2% SDS, 1 mM PMSF, 50 μg/ml aprotinin, 50 μM leupeptin). Lysates were centrifuged for 10 min at 14,000 rpm in an Eppendorf microcentrifuge, 90 μl of supernatants were mixed with 30 μl of 4×Laemmli sample buffer. Samples were boiled for 5 min. Twenty μl of prepared samples were electrophoresed through a 12% SDS-PAGE gel, and proteins were transferred to nitrocellulose membranes. […]

[2] = tested on: p42^erk2; experiment: ERK kinase assay with EGFR662-681 peptide substrate, Ramos cells; format: cell-based, human; conditions: 100 ng/ml PMA for 20 min, control about 10,000 cpm
Protocol: Kinase activity was evaluated using EGFRF662-681 peptide as a substrate as described previously (Franklin et al., J. Immunol. 153:4890-4898, 1994). Following stimulation, 10^6 cells were lysed in 75 μl of lysis buffer (70 mM β-glycerophosphate, pH 7.2, […], 2 mM MgCl2, 1 mM EGTA, 0.5% Triton X-100, 5 μg/ml leupeptin, 2 μg/ml aprotinin and 1 mM DTT) and placed on ice for 15 min. Cell lysates were centrifuged at 14,000 rpm for 10 min and 20 μl of supernatant were removed and mixed with 20 μl of 2×kinase buffer (50 mM β-glycerophosphate, pH 7.2, […], 20 mM MgCl2, […], 1 mM EGTA, 400 μM EGFR662-681 peptide, 200 μM ATP and 0.225 mCi/ml[γ-^32P] ATP [ICN Biochemicals, Costa Mesa, Calif.]). After 15 min at 30° C., 10 μl of 250 mM EDTA was added, and 45 μl of the reaction mixture was spotted onto P-81 phosphocellulose paper (Whatman, Clifton, N.J.). The papers were washed four times (5 min each) in 400 ml of 75 mM phosphoric acid and then radioactivity bound to the filter paper was determined by liquid scintillation counting.

[3] = tested on: p38 MAP kinase; experiment: p38 immunoprecipitation kinase assay with ATF-2 (1-110), neutrophils; format: cell-based; conditions: 100 ng/ml LPS, varying time intervals
Protocol: Neutrophils isolated by the plasma percoll method as previously described (Haslett, C., Am. J. Pathol. 119, 101-110; 1985) were resuspended at about 25×10^6 cells/ml in KRPD containing 0.1% Human Heat Inactivated Platelet-Poor Plasma, 1 mM PMSF, 10, μg/ml leupeptin and 10 μg/ml aprotinin. About 25×10^6 PMN were preincubated for 30 minutes at 37° C., then stimulated with 100 ng/ml LPS for varying time intervals and reactions terminated by a 20 second centrifugation at 15,000 rpm. Cell pellets were lysed with 500 μl cold RIPA (50 mM Tris pH=7.2, 150 mM NaCl, 1.1% SDS, 0.1% sodium deoxycholate, 1% Triton-X-100, 10 mM sodium pyrophosphate, 25 mM M glycerophosphate, 1 mM sodium orthovanadate and 2.1 μg/ml aprotinin), and centrifuged at 15,000 for 10 minutes at 4° C. Triton soluble lysates were initial precleared with Protein A Sepharose for 30 minutes at 4° C., followed by Protein A Sepharose immunoprecipitation with 5 μl/sample polyclonal antibodies specific for p38 and 15 μl of bead suspension, for 120 minutes at 4° C. Beads were washed once in RIPA and twice in PAN (10 mM Pipes, 100 mM NaCl, pH=7.0, and 21 μg/ml aprotinin). […] Reactions were terminated with 2×Laemelli buffer and after boiling, proteins were separated by SDS-PAGE, with quantification of activity by autoradiography and phosphorimaging, and qualitative analysis of enzyme presence and phosphorylation by Western Blotting.

| Compound | ERK2 mobility shift (bands reactive with anti-ERK2 antibody) [1] | kinase activity (32P incorporation into EGFR662-681 peptide) [2] | p38 MAP kinase activation [3] |
| --- | --- | --- | --- |
| CCCCCCCCCCCCCC(=O)O[C@@H]1[C@@H](C)[C@@]2(O)[C@@H](C=C(CO)C[C@]3(O)C(=O)C(C)=C[C@@H]23)[C@@H]2C(C)(C)[C@]12OC(C)=O [PMA, phorbol 12-myristate 13-acetate] | a second band with immunoreactivity to anti-ERK2 antibody appeared | about 30,000 counts per minute | – |
| lipopolysaccharide | – | – | activated |
